Results published in paper PMC8480776, “Selenium Derivatives as Promising Therapy for Chagas Disease: In Vitro and In Vivo Studies” (ACS Infectious Diseases, 2021).
Where two headings read alike, the source gives them in different places.

Experiments:
[1] = tested on: T. cruzi trypomastigotes, Arequipa strain; assay: Screening against bloodstream trypomastigotes, Arequipa strain; type: cell-based, Trypanosoma cruzi; conditions: Trypanosoma cruzi; bloodstream trypomastigotes, 24 h + 4 h resazurin; read-out: activity IC50, Arequipa strain, trypom. forms
[2] = tested on: T. cruzi amastigotes, Arequipa strain; assay: Screening against intracellular amastigotes, Arequipa strain; type: cell-based, Trypanosoma cruzi; conditions: Trypanosoma cruzi; amastigotes in Vero cells, 72 h; read-out: activity IC50, Arequipa strain, am. forms
T. cruzi Arequipa strain = assay: In vivo trypanocidal activity on BALB/c mice (acute and chronic Chagas disease); design: species or system Trypanosoma cruzi
Experimental: (§1) Female BALB/c mice aged 10–12 weeks and with a size of 20–24 g were divided into five groups (n = 3 per group): 0, negative control group (uninfected and untreated mice); I, positive control group (infected and untreated mice); II, BZN group (infected mice treated with BZN); III, 26 group (infected mice treated with 26); and IV, 28 group (infected mice treated with 28).
Mice were infected by intraperitoneal injection of 5 × 10^5 BTs of T. cruzi Arequipa strain per mouse in 200 μL PBS.[42] Subsequently, the treatment was intraperitoneally administered (∼200 μL) once daily for 5 consecutive days.
(§2) The tested selenocompounds and BZN were prepared at 2 mg·mL^–1 in an aqueous suspension vehicle containing 5% (v/v) DMSO and 0.5% (w/v) hydroxypropyl methylcellulose, as previously reported.[52] Compounds (20 mg·kg^–1 per day) were administered for 5 consecutive days (total dosages of 100 mg·kg^–1), and vehicle only was administered in the negative and positive control groups. Treatments began when the infection was confirmed (9 dpi) for acute-phase-treated mice, and when it was established that the animals moved into the chronic phase (100 dpi, for chronic-phase-treated mice; Scheme 1).
[…]. Parasitemia was expressed as parasites·mL^–1.
Immunosuppression was performed by intraperitoneal injection of three doses of 200 mg·kg^–1 of ISOPAC CP at 3–4 day intervals (Scheme 1), as previously reported.[53] Mice were closely monitored for side effects or for secondary infections due to immunosuppression. Within 7 days after the last CP injection, parasitemia reactivation was determined by counting BTs according the procedure described for parasitemia in the acute phase.[42]
On 145 dpi, the mice were euthanized using CO2, followed by exsanguination via cardiac puncture, and blood was collected. […]. In addition, spleens were weighed to assess splenomegaly.[42]
DNA extraction of the post-mortem organs/tissues was performed using Wizard Genomic DNA Purification Kit,[41] and the extracted DNA was subjected to amplification by PCR based on the spliced leader (SL) intergenic region sequence of T. cruzi (for detailed description, see literature reported previously).[55] Finally, the PCR products were resolved by electrophoresis on a 2% agarose gel (containing GelRed nucleic gel stain) for 90 min at 90 V.
Circulating antibodies in serum against both antigens were quantitatively evaluated in triplicate by the ELISA test in 96-well plates using diluted serum samples (1:80 in PBS), as previously described.[41]

[3] = tested on: epimastigotes of T. cruzi Arequipa strain; assay: Flow cytometry analysis of nucleic acid levels (acridine orange); type: cell-based, Trypanosoma cruzi; conditions: IC25 concentrations, 72 h
[4] = tested on: T. cruzi trypomastigotes, Tulahuen strain; assay: Screening against bloodstream trypomastigotes, Tulahuen strain; type: cell-based, Trypanosoma cruzi; conditions: Trypanosoma cruzi, TULAHUEN; bloodstream trypomastigotes, 24 h + 4 h resazurin; read-out: activity IC50, Tulahuen strain, trypom. forms
[5] = tested on: T. cruzi amastigotes, Tulahuen strain; assay: Screening against intracellular amastigotes, Tulahuen strain; type: cell-based, Trypanosoma cruzi; conditions: Trypanosoma cruzi, TULAHUEN; amastigotes in Vero cells, 72 h; read-out: activity IC50, Tulahuen strain, am. forms
Vero cells = assay: Cytotoxicity test on Vero cells; type: cell-based; conditions: Chlorocebus sabaeus, 48 h + 24 h resazurin, read-out: Toxicity IC50 Vero cell
[6] = tested on: Vero cells infected with T. cruzi Arequipa strain; assay: Infection rate in Vero cells (infected cells), Arequipa strain; type: cell-based; conditions: Trypanosoma cruzi, 72 h of treatment
[7] = type: in vivo, BALB/c mice; conditions: variation vs control
Experimental: as §1, §2
Serum samples obtained from blood in several days post-infection (Scheme 1) were sent to the Biochemical Service (University of Granada) to measure a series of biochemical parameters with the commercial Cromakit using a clinical chemistry analyzer (BS-200, Shenzhen Mindray Biomedical Electronics Co., LTD), as previously described.[41]

[8] = tested on: T. cruzi amastigotes, SN3 strain; assay: Screening against intracellular amastigotes, SN3 strain; type: cell-based, Trypanosoma cruzi; conditions: Trypanosoma cruzi; amastigotes in Vero cells, 72 h; read-out: activity IC50, SN3 strain, am. forms
[9] = tested on: T. cruzi epimastigotes, Tulahuen strain; assay: Screening against extracellular epimastigotes, Tulahuen strain; type: cell-based, Trypanosoma cruzi; conditions: Trypanosoma cruzi, TULAHUEN; 48 h + 24 h resazurin; read-out: Activity IC50, epimastigote form, Tulahuen strain
[10] = treatment in acute phase, 15th dpi (2 days after treatment)
[11] = treatment in acute phase, necropsy day
[12] = treatment in chronic phase, 106th dpi (2 days after treatment)
[13] = treatment in chronic phase, necropsy day

## O=C(Cn1ccnc1[N+](=O)[O-])NCc1ccccc1 [BZN, benznidazole, reference compound]
[1]
  IC50: 12.4 ± 1.1 µM
[2]
  IC50: 8.3 ± 0.7 µM
T. cruzi Arequipa strain; 20 mg·kg–1 per day i.p. 5 days from 9 dpi, necropsy 145 dpi
  parasite-free organs/tissues by PCR, acute phase treatment: 28.6%
T. cruzi Arequipa strain; 20 mg·kg–1 per day i.p. 5 days from 100 dpi
  anti-T. cruzi IgG levels (ELISA), chronic phase treatment: similar
T. cruzi Arequipa strain; 20 mg·kg–1 per day i.p. 5 days from 100 dpi, necropsy 145 dpi
  parasite-free organs/tissues by PCR, chronic phase treatment: 42.9%
[3]
  inhibition of nucleic acid levels: up to 22%
[4]
  IC50: 15.1 ± 1.3 µM
[5]
  IC50: 10 ± 0.8 µM
Vero cells
  IC50: 80.4 ± 7.1 µM
[6]
  IC50: 15.1 µM
[7]; [10]
  ALP (liver marker): = (=, variation ≤ 10%)
  ALT/GPT (liver marker): ++ (++/--, 20-30% increase/decrease over the range)
  AST/GOT (liver marker): ++++ (++++/----, ˃ 40% increase/decrease over the range)
  CK-MB (heart marker): = (=, variation ≤ 10%)
  LDH (heart marker): = (=, variation ≤ 10%)
  Total bilirubin (liver marker): ++++ (++++/----, ˃ 40% increase/decrease over the range)
  Urea (kidney marker): -- (++/--, 20-30% increase/decrease over the range)
  Uric acid (kidney marker): ---- (++++/----, ˃ 40% increase/decrease over the range)
[7]; [11]
  ALP (liver marker): = (=, variation ≤ 10%)
  ALT/GPT (liver marker): = (=, variation ≤ 10%)
  AST/GOT (liver marker): + (+/-, 10-20% increase/decrease over the range)
  CK-MB (heart marker): - (+/-, 10-20% increase/decrease over the range)
  LDH (heart marker): = (=, variation ≤ 10%)
  Total bilirubin (liver marker): ++ (++/--, 20-30% increase/decrease over the range)
  Urea (kidney marker): -- (++/--, 20-30% increase/decrease over the range)
  Uric acid (kidney marker): - (+/-, 10-20% increase/decrease over the range)
[7]; [12]
  ALP (liver marker): ++++ (++++/----, ˃ 40% increase/decrease over the range)
  ALT/GPT (liver marker): ++ (++/--, 20-30% increase/decrease over the range)
  AST/GOT (liver marker): + (+/-, 10-20% increase/decrease over the range)
  CK-MB (heart marker): -- (++/--, 20-30% increase/decrease over the range)
  LDH (heart marker): -- (++/--, 20-30% increase/decrease over the range)
  Total bilirubin (liver marker): + (+/-, 10-20% increase/decrease over the range)
  Urea (kidney marker): - (+/-, 10-20% increase/decrease over the range)
  Uric acid (kidney marker): - (+/-, 10-20% increase/decrease over the range)
[7]; [13]
  ALP (liver marker): = (=, variation ≤ 10%)
  ALT/GPT (liver marker): ++ (++/--, 20-30% increase/decrease over the range)
  AST/GOT (liver marker): + (+/-, 10-20% increase/decrease over the range)
  CK-MB (heart marker): -- (++/--, 20-30% increase/decrease over the range)
  LDH (heart marker): -- (++/--, 20-30% increase/decrease over the range)
  Total bilirubin (liver marker): ++ (++/--, 20-30% increase/decrease over the range)
  Urea (kidney marker): = (=, variation ≤ 10%)
  Uric acid (kidney marker): - (+/-, 10-20% increase/decrease over the range)
[8]
  IC50: 16.6 ± 1.4 µM
[9]
  IC50: 19.7 ± 1.7 µM
